The text below walks through data of publication PMC6820371, “Terbium-161 for PSMA-targeted radionuclide therapy of prostate cancer” (European Journal of Nuclear Medicine and Molecular Imaging, 2019).

In data set [1] the test system is PC-3 PIP tumor cells. Description: Cell survival assay (clonogenic assay). Format: cell-based, human. As to conditions: DTPA complexes, 0.01–10 MBq/mL; marginal reduction at higher concentration.
Data set [2] has as its system PC-3 PIP tumor cells. Briefly: Cell viability assay (MTT assay). Format: cell-based, human. Conditions: DTPA complexes, 0.01–20 MBq/mL; marginal reduction at higher concentration. How it is done:
The detailed methods of these studies, including dosimetric calculations, are described in the Supplementary material. The results were analyzed for statistical significance by a two-way ANOVA with Sidak’s multiple comparison post-test using Graph Pad Prism (version 7).
Methods: Tumor cell viability was assessed using a 3-(4,5-dimethylthiazol-2-yl)-2,5-diphenyltetrazolium bromide (MTT) assay as described by Mosmann. PC-3 PIP tumor cells (2500 cells in 200 μL RPMI medium with supplements) were seeded in 96-well plates and incubated overnight (37°C; 5% CO2) to allow adhesion of the tumor cells. The supernatants were removed and the tumor cells were washed once with 200 μL PBS. Afterwards, the tumor cells were incubated in 200 μL RPMI medium (without supplements) containing ^161Tb-PSMA-617 or ^177Lu-PSMA-617 (0.01‒20 MBq/mL), respectively, or just RPMI medium without addition of radioligands. PSMA-negative PC-3 flu tumor cells were also treated with these radioligands under the same experimental conditions using the same concentration range. Additional cell viability assays were performed with PC-3 PIP tumor cells incubated with RPMI medium (without supplements) containing ^161Tb-diethylenetriaminepentaacetic acid (DPTA) or ^177Lu-DTPA (0.01 – 20 MBq/mL). After 4 h incubation (37 °C; 5% CO2), the tumor cells were washed once with 200 μL PBS, followed by the addition of 200 μL of RPMI medium (with supplements) to each well. The tumor cells were left to grow for 6 days under standard cell culture conditions (37 °C, 5% CO2). At Day 6 after treatment, MTT reagent (5 mg/mL in PBS, 30 μL per well) was added to each well to allow the formation of dark-violet formazan crystals within 4 h incubation. The crystals were dissolved by the addition of dimethyl sulfoxide to determine the absorbance at 560 nm using a microplate reader (Victor X3, Perkin Elmer). Cell viability was quantified by expressing the absorbance of the test samples as percentage of the absorbance of control (untreated) cell samples which was set to 100%. Statistical analysis was performed using a two-way ANOVA with Sidak’s multiple comparison post-test in Graph Pad Prism (version 7).
A general note: Tetrazolium dyes change colour on reduction, which living cells bring about.

Data set [3] concerns PSMA-negative PC-3 flu tumor cells. Description: Tumor cell uptake and internalization. Format: cell-based. As to conditions: 2–4 h incubation.
On the set-up of data set [4]: method as in Benešová et al. 2018 [4]. As to conditions: saline, in the presence of l-ascorbic acid, up to 24 h; ref Benešová et al. 2018 [4]; cited from earlier work.
The subject of data set [5] is PC-3 PIP tumor-bearing mice. Further details: method as in PMID 29684274. Conditions: 5.0 MBq; cited from earlier work.
The test system of data set [6] is mice inoculated with PC-3 PIP cells. Description: Additional therapy study (injection 2 days after tumor cell inoculation). Format: in vivo. Conditions: for Median Survival: control 26 days. How it is done:
The day of the treatment, two days after tumor cell inoculation, was defined as Day 0 of the study (Table S7).
Endpoint criteria: The mice were monitored until they reached an endpoint (definition of endpoints, see Chapter 13) or over the whole period of 38 days when the study was terminated.
Data analysis of the therapy study: The tumor growth delay indices (TGDI2 and TGDI5) were calculated as reported in the Methods of the main manuscript. The median survival was determined using GraphPad Prism software (version 7).

On the set-up of data set [7]: method as in Benešová et al. [4]. As to conditions: PBS pH 7.4; ref Benešová et al. [4]; cited from earlier work.
Data set [8] deals with PSMA-positive PC-3 PIP tumor cells. Briefly: Tumor cell uptake and internalization. Format: cell-based, human. As to conditions: 2–4 h incubation.

Regarding `O=C([O-])CN(CCN(CC(=O)[O-])CC(=O)[O-])CCN(CC(=O)[O-])CC(=O)[O-].[161Tb+3]` [^161Tb-DPTA, ^161Tb-diethylenetriaminepentaacetic acid, reference compound], the “Survival of PC-3 PIP tumor cells” value in the data set on PC-3 PIP tumor cells [1] is given as “not affected”. Moreover, the “Viability of PC-3 PIP tumor cells” value in the data set with PC-3 PIP tumor cells [2] is “not affected”.
For `O=C([O-])CN(CCN(CC(=O)[O-])CC(=O)[O-])CCN(CC(=O)[O-])CC(=O)[O-].[177Lu+3]` [^177Lu-DTPA, reference compound], in the data set on PC-3 PIP tumor cells [1], the “Survival of PC-3 PIP tumor cells” value is “not affected”. Further, the “Viability of PC-3 PIP tumor cells” value with PC-3 PIP tumor cells [2] was “not affected”.
As for `O=C([O-])CN1CCN(CC(=O)[O-])CCN(CC(=O)NCC2CCC(C(=O)N[C@@H](Cc3ccc4ccccc4c3)C(=O)NCCCC[C@H](NC(=O)N[C@@H](CCC(=O)O)C(=O)O)C(=O)O)CC2)CCN(CC(=O)[O-])CC1.[177Lu+3]` (stereo partly shown) [^177Lu-PSMA-617, reference compound], the “Uptake in PC-3 flu tumor cells” value in data set [3] is on record as under 0.5%. In data set [4], the “Stability (intact radioligand)” value is recorded as at least 98%. The Last mouse euthanized in data set [5] was 40 days; in data set [6] (2.5 MBq, study end Day 38) it was “study end”; in data set [6] (5.0 MBq, study end Day 38), “study end”; in data set [6] (10 MBq, study end Day 38) it was “study end”. Also, the values for the Median Survival in data set [5], in data set [6] (2.5 MBq) and in data set [6] (5.0 MBq) were 32 days, 27 days and 30 days, respectively. In addition, the values for the TGDI2 in data set [5], in data set [6] (2.5 MBq) and in data set [6] (5.0 MBq) were 2.1 ± 0.3, 0.8 ± 0.4 and 1.0 ± 0.4, respectively. The First mouse euthanized in data set [6] (2.5 MBq) was 20 days; in data set [6] (5.0 MBq), 24 days; in data set [6] (10 MBq, study end Day 38), “Study end”. In data set [6] (2.5 MBq), this molecule gave a TGDI5 of 1.0 ± 0.3. Further, the Survival result in data set [6] (10 MBq) is listed as “survived until the end of the study at Day 38”. For the same molecule, in data set [6] (10 MBq, from about Day 20 on), the “Cases in which tumors started to regrow” value turned out to be 50%. For the same molecule, the “n-octanol/PBS distribution coefficient (logD value)” value in data set [7] is recorded as “–4.4 ± 0.1”. In addition, in data set [8], the “PC-3 PIP tumor cell uptake” value was 49–58%. For the same molecule, the Internalized fraction in data set [8] (PC-3 PIP) is listed as 9–12%.
